Data as given in a melting point compilation (Tetko et al.; mined from patent text by program, amines drawn as free bases though some values may be those of a salt).

SMILES	melting point [°C]
CC(=O)C(C)(C)Nc1nc(N)nc(O)c1[N+](=O)[O-]	289
COC(=O)c1ccc2[nH]c3ccccc3c2c1	180 to 181
O=C1c2cc(Cl)ccc2CN2CCC(=NO)C12 (stereo unspecified)	130 to 136
Cn1c(=O)c(C(=O)O)c(-c2ccccc2Cl)c2cc(Cl)ccc21	197 to 198
CCCCC(=O)N(CCCCO)Cc1ccc(-c2ccccc2-c2nnn[nH]2)cc1	110 to 111
CC(=O)N1CCC(CCCC(=O)c2ccc3c(c2)CCN(C(=O)C(F)(F)F)CC3)CC1	101 to 102
COC(C=Cc1ccccc1)=C1C(=O)C=C(C)C1=O	86
CS(=O)(=O)c1ccc(Cl)c(-c2n[nH]c3nc(Oc4ccc(F)cc4F)ncc23)c1	252
O=C(O)c1cccc(Cn2ccn(C3CCc4ccccc4C3)c2=S)c1 (stereo unspecified)	252 to 254
CCCCCCCCCCC[C@@H](O)CC(=O)OCC(=O)c1ccc(Br)cc1	109 to 110
COc1ccc(Cl)cc1C(CC(=O)O)c1ccccc1 (stereo unspecified)	144
Cn1c(C(=O)c2ccc(F)cc2)cc2cc(Br)ccc21	162 to 164
CC(=O)C(=NNc1ccccc1)C(=O)NCc1ccccc1	101 to 103
COc1ccccc1C=CC=C(CC(N)C(=O)O)C(=O)O (stereo unspecified)	187 to 189
O=C(CCCCCS(=O)c1ccc(Cl)cc1)NO (stereo unspecified)	125
O=C(Cc1ccc(Cl)cc1)c1ccc(Br)cc1	128 to 129
C1=C(c2c[nH]c3ccccc23)CCNC1	185 to 186
CCCCCCc1ccc(NC2=NCCS2)cc1	77 to 79
CN=C(NS(=O)(=O)c1ccc(Cl)cc1)C1=NN(c2ccc(Cl)cc2)C(c2ccccc2)C1 (stereo unspecified)	134 to 144
Cn1c(CC(C)(C)C(=O)O)c(C(=O)c2ccc(Cl)cc2)c2ccc(OCc3ccc4ccccc4n3)cc21	203 to 205
O=C1C=CC(O)(c2ccccc2)C=C1	102 to 103

SMILES	melting point [°C]
c1ccc2c(c1)CC(CN1CCN(c3ccc4ccoc4c3)CC1)C2	168 to 170
CCOC(=O)c1c(CN(CC)CC)nc2sc(C)c(C)c2c1-c1ccc(Cl)cc1	98 to 100
Cc1nn(CC(F)CO)c(-c2ccc(F)cc2)c1-c1ccc2c(c1)NC(=O)CO2 (stereo unspecified)	193 to 196
COC(=O)C1N=c2c(ccc3c2=CC=N3)O1 (stereo unspecified)	207 to 208
CCOc1ccc(CCN(C(=O)O)C(=O)[C@H](C)NC(C)=O)cc1OCC	84 to 86
CCS(=O)(=O)Nc1cc(-n2c(=O)cc(C(F)(F)F)n(N)c2=O)c(F)cc1C#N	190
CCOC(=O)C1=C(C)Nc2nc(N3CCOCC3)nc(N3CCOCC3)c2C1c1ccccn1 (stereo unspecified)	226
Oc1ccc(-c2ccc(C#CC3(O)CN4CCC3CC4)cc2)cc1 (stereo unspecified)	230 to 233
COc1ccc(-c2c(Br)c(CN3C(=O)CCC3=O)nc3sc4c(c23)CCNC4)cc1	219 to 221
CCCCCCCCCCCCCCCCC1CC(Cn2cncn2)(c2ccc(Cl)cc2)N(C)O1 (stereo unspecified)	100 to 102
ClCCCOc1ccc2ccccc2c1	46 to 49
O=CC(Nc1ccc2c(c1)OCC(=O)N2)N1CCC(Cc2ccc(F)cc2)CC1 (stereo unspecified)	156 to 161
COC(=O)c1cccc2c(=O)c3cccc(I)c3[nH]c12	174 to 176
Cc1nc(C)c(Cl)c(NCc2ccc(OCc3ccccc3)c(OCC(F)(F)F)c2)n1	135 to 138
CCCn1c(=O)c2[nH]c(C(C)(C)C)nc2n(CCN(C)C(C)=O)c1=O	149 to 152
CC1=NS(=O)(=O)N(C(c2ccccc2)c2ccccc2)C=C1	174 to 177
COC(=O)CCc1cc2cc(Cl)ccc2n1S(=O)(=O)c1ccc(C#N)cc1	155 to 159
CCCCCCCNC(=O)Nc1ccccc1C(=O)N1CCN(C(c2ccccc2)c2ccccc2)CC1	125 to 127
Cc1ccc(C)c2[nH]c(N)nc12	164 to 170
COC(=O)C[C@H]1CC[C@H](n2nc(-c3c(-c4ccccc4)nn4ccccc34)ccc2=O)C1 (relative stereo)	105 to 107
CCCCCCOc1ccc2c(CC#N)c(OCCCCCC)ccc2c1CC#N	135 to 136

More lines, now with the values ahead:

melting point [°C]	SMILES
67 to 69	CC(Oc1cccc(Cl)c1)C(=O)NCCO[N+](=O)[O-] (stereo unspecified)
115 to 116	CCc1nc(OC)c(NC(=O)N2CCN(c3cc(OC)cc(OC)c3)CC2)cc1C
177 to 178	COc1cccc2cc(CNCCNC(=O)C34CCC(CC3=O)C4(C)C)oc12 (stereo unspecified)
126	COC(=N)CCSCc1csc(N=C(N)N)n1
244 to 246	O=C(Nc1cccc(CN2C(=O)[C@H]3CCC[C@H]3N(C(=O)CN3C(=O)c4ccccc4C3=O)c3ccccc32)c1)c1ccccc1 (relative stereo)
82.5 to 84.5	COc1cc(C2=NC(C)(C)CO2)cc(OC)c1SC
110 to 111	Cc1c(C(=O)O)oc2cc(OCCNC[C@H](O)COc3ccccc3)ccc12
63 to 65	COc1c(CO)cccc1Oc1ccccc1C
169 to 170	CCOC(=O)c1nn(-c2ccc(N=[N+]=[N-])cc2)c(=O)c2c(N)scc12
126 to 127	Cc1cn(-c2ccc(N)c(C(F)(F)F)c2)c(C)n1
121 to 122	COc1ccc(-c2nc(Sc3ccc(Cl)cc3)[nH]c2-c2ccc(OC)cc2)cc1
149 to 151	Cc1c(C(=O)Nc2ccc(N3CCN(CCO)CC3)c(C#N)c2)cnn1-c1ccc(F)cc1F
170 to 172	Cn1cc(C2=C(c3c4n(c5ccccc35)CCN(C(=O)CNC(=O)C(F)(F)F)C4)C(=O)NC2=O)c2ccccc21
> 260	O=S(=O)(CC(F)(F)F)Nc1cccc2c1CCCC2c1c[nH]cn1 (single isomer, unassigned; (+))
293 to 295	CCOCCn1cc2c(C3C(=O)Nc4ccc(Cl)cc43)nc(NCCN(C)C)nc2n1 (stereo unspecified)
262	O=C(O)C1(Cc2ccccc2)CCN(Cc2ccccc2)CC1
146 to 147	COc1ccc(CC(=O)NC(NC(=NC#N)Nc2cccnc2OC)C(C)(C)C)cc1OC (stereo unspecified)
79 to 81	CCOC(=O)c1cnn(-c2ccc(Cl)c(Cl)c2)c1C#N
143 to 144	COC(=O)c1nn(-c2ccc(OCc3ccccc3)cc2F)cc(OC)c1=O
218 to 220	CCOC(=O)c1cn(C)c2cnc3cc(F)c(N4CCCC(C)(C)C4)cc3c2c1=O
141 to 143	CC(C)(C)OC(=O)n1cc(C(=O)C2CSC(c3cccnc3)N2C(N)=O)c2ccccc21 (stereo unspecified)
194 to 197	CCN1c2ncccc2C(=O)Nc2c(C)cc(N3CCCC(CO)C3)nc21 (stereo unspecified)
> 360	Cc1nc2cc(C34CC5CC(CC(C5)C3)C4)cc(-c3ccc(C=C4SC(=S)NC4=O)cc3)c2o1
109 to 111	COc1c(O)cc(C)c(OC(=O)c2ccccc2)c1OC
76.5 to 77	CCCn1nnn(-c2cc(OC(C)C)c(F)cc2F)c1=O
205 to 206	O=c1[nH]nc(Cl)cc1Br
83 to 84	CC1(OCc2ccccc2F)COC(c2cccc(F)c2)OC1 (stereo unspecified)
208	O=C(Nc1ccc2cc(CN3CCCC3)cnc2c1F)c1ccc(-c2ccc(Cl)cc2)cc1F
131 to 132	CC(C)=CCC[C@H](C)CC(=NO)C(C[C@@H](C)CCC=C(C)C)=NO
